The source of these data is US20100160207A1, “Feedback Prodrug” (University of Georgia Research Foundation, Inc., priority 2006, published 2010).

Data set [1] deals with T1, human lysosomal mannosidase (HLM) (Homo sapiens, UniProt O00754).
T1 sequence (O00754 50-1011): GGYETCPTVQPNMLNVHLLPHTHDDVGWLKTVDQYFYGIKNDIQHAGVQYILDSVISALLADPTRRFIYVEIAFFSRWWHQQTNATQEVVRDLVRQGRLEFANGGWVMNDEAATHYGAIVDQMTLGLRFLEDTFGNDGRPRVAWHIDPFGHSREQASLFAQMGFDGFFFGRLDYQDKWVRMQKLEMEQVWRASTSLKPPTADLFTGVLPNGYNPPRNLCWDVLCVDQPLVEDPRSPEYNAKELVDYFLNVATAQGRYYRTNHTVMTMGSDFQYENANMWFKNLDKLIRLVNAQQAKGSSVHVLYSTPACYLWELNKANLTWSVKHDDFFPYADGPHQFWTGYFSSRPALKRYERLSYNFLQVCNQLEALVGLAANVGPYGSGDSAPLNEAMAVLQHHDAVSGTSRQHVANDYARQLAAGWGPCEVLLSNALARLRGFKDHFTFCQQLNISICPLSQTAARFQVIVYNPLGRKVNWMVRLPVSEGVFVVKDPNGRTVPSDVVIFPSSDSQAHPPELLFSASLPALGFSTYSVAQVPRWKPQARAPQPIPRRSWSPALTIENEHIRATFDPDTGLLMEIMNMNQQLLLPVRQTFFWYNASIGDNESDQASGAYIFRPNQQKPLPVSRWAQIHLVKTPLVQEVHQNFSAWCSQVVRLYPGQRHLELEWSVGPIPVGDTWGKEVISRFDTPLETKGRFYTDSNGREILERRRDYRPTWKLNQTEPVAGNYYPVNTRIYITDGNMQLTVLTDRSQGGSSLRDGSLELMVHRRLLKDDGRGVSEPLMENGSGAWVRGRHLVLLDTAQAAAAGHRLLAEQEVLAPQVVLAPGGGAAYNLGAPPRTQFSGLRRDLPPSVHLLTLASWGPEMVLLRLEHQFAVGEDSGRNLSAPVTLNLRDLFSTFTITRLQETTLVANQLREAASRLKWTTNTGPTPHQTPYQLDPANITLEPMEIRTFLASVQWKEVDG
The note with it: Li et al., Chem. Bio. Chem. 2004; cited from earlier work.

In a further data set the test system is MDAY-D2 lymphoma cells. Description: Inhibition of cell surface polylactosamine biosynthesis (L-PHA lectin blot). The class given is cell-based. The note with it: MDAY-D2 cells cultured for two days. Here is the method:
MDAY-D2 cells were cultured for 2 days in the absence (control) or presence of different concentrations of compounds 14 (a) or 15 (b). Cellular proteins (10 μg) were subjected to SDS-PAGE and polylactosamine was visualized using a fluorescein labeled L-PHA lectin (upper part figure). Fluorescence bands were scanned by laser beam densitometry, and the relative intensity depicted (lower part figure).
It is known that the metastatic MDAY-D2 lymphoma cell line over-expresses the enzyme N-acetyl glucosaminyltransferase V (GnTV) (Goss et al., Clin. Cancer Res. 1995, 1, 935). […] Subsequently, the presence of polylactosamine linked to proteins was determined by analyzing cell lysates by Western blotting using a fluorescein labeled PHA lectin (Dennis et al., Cancer Res. 1990, 50, 1867).
Cell maintenance. […] New batches of frozen cell stock were grown up every 2 months and growth morphology was evaluated.
Inhibition of cell surface polylactosamine biosynthesis. […] Protein concentrations were determined using the BCA reagent (Pierce) and cellular proteins (10 μg) were separated by SDS-PAGE using 4-20% linear gradient polyacrylamide gels (Bio-Rad). […] Fluorescence bands were imaged at 495 nm (absorbance)/520 nm (emission) and the intensity scanned by laser beam densitometry (Typhoon 9410 Imager; Amersham Biosciences).

Data set [2] in a line: Self-decomposition half-time of the intermediate released from prodrug 2 by Jack Bean mannosidase, followed by 1H NMR. The class given is physicochemical. The note with it: phosphate/citrate buffer. Here is the method: Next, the pH dependence of the self-fragmentation of intermediates 3 and 4 was investigated. It is well known that different organelles have different pH values. […] Golgi mannosidase II has been identified as a target for anti-metastatic therapy (Goss et al., Clin. Cancer Res. 1995, 1, 935; Elbein, FASEB J. 1991, 5, 3055), whereas inhibition of lysosomal mannosidase leads to the phenotype of lysosomal storage disease. […] Thus, compound 2 (0.4 mM) in sodium acetate buffers of different pH was treated with a large quantity (7 Units/mL) of Jack Bean α-mannosidase (JBM) to completely convert the prodrug into intermediate 4. Subsequently, the decomposition of 4 was monitored by ^1H NMR by integration of key signals of the intermediate and final product. […] The results of these experiments indicate that in a compartment such as the medial Golgi, which has a pH close to neutral, the decomposition of the intermediate will occur in minutes, which is probably fast enough for rebinding of the inhibitor.
Self-decomposition half-time measurements. A solution of compound 2 (0.08 μmol) and Jack Bean mannosidase (JBM) (1.4 Units) in deuterated 0.2 M phosphate/0.1 M citrate buffer (pH=4.0, 4.5, 5.0, 5.5, 6.0 or 6.5; 0.2 ml) was incubated at 37° C. or 25° C., and ^1H NMR spectra (600 MHz) were recorded at different time intervals. Relevant signals were integrated to determine the appearance of the intermediate 4 and the final product 6, and the decomposition rate.

The target in data set [3] is T1, human lysosomal mannosidase (HLM). The data set can be described thus: Enzymatic cleavage of prodrugs by human lysosomal mannosidase monitored by 1H NMR. The following applies: HLM 20 mU, 80 nmol compound, sodium acetate buffer pH 5.6, 37° C. The class given is biochemical. The procedure: HLM ([…]) was added to a solution of 2 (a) or 1 (b) ([…]) in a deuterated sodium acetate buffer (100 mM, pH, 5.6, 0.2 mL) and the enzymatic cleavage was monitored by ^1H NMR (600 MHz).
The enzymatic cleavage of 1 and 2 by human lysosomal mannosidase (HLM) was monitored by ^1H NMR (600 MHz) (Wilson et al., Org. Lett. 1999, 1, 443) Thus, HLM (20 mU) was added to a solution of 1 or 2 (80 nmol) dissolved in a deuterated sodium acetate buffer (100 mM, pH 5.6, 0.2 mL). The progress of the reaction was monitored by the integration of key signals of the starting material, the intermediate and final product. […] In this case, the released mannostatin A (5) inhibits HLM terminating further hydrolysis of 1. Mannostatin A is a potent inhibitor of retaining α-mannosidases (Ki=90 nM, HLM) (Li et al., Chem. Bio. Chem. 2004, 5, 1220) and thus the release of low concentrations of the active compound is sufficient to abolish enzyme activity.
Kinetic measurements. A solution of compound 1 or 2 (0.08 μmol) and human lysosomal mannosidase (HLM, 0.02 Unit) in deuterated sodium acetate buffer (0.1 M; pH 5.6; 0.2 ml) was incubated at 37° C., and ^1H NMR spectra (600 MHz) were recorded at different time intervals. Relevant signals were integrated to determine the rate of enzymatic hydrolysis, and the appearance of the intermediate and the final product.

A further data set concerns α-glucosidase. The data set can be described thus: Negative enzyme control experiment, α-glucosidase. The following applies: 0.1 Unit, MES buffer pH 6.8, 37° C., 20 h. The data set is classed as biochemical. The procedure: (§1) Compounds 1 and 2 were subjected to an α-glucosidase, α-fucosidase and α-galactosidase.
(§2) Negative enzyme control experiments. A solution of compound 1 or 2 (0.004 mmol) and α-glucosidase, α-galactosidase or α-L-fucosidase (0.1 Unit) in MES buffer (0.05 M; pH 6.8 for α-glucosidase, pH 6.5 for α-galactosidase or pH 5.5 for α-L-fucosidase; 1 ml) was incubated at 37° C. for 20 h, after which the reaction mixture was freezing-dried, and the solid residue was analyzed by ^1H NMR spectrometry and mass spectrometry.

The test system of a further data set is α-galactosidase. Description: Negative enzyme control experiment, α-galactosidase. The class given is biochemical. The note with it: 0.1 Unit, MES buffer pH 6.5, 37° C., 20 h. Here is the method: as §1, §2
The next data set relates to α-L-fucosidase. Description: Negative enzyme control experiment, α-L-fucosidase. The note with it: 0.1 Unit, MES buffer pH 5.5, 37° C., 20 h. The class given is biochemical. The procedure: as §1, §2
Data set [4] is described as follows: Stability measurements in deuterated sodium acetate buffer by 1H NMR. The data set is classed as physicochemical. The following applies: 0.4 mM, sodium acetate buffer pH 4.0, 37° C., 6 days. The procedure: Stability measurements. A solution of compound 1 or 2 (0.4 mM) in deuterated sodium acetate buffer (100 mM; pH 4.0; 0.2 ml) in a NMR tube was incubated at 37° C. for 6 days. ^1H NMR spectra were recorded every day.

The target in data set [5] is T1, human lysosomal mannosidase (HLM). Description: Inhibition of human lysosomal mannosidase. The class given is biochemical.

Broadly, the Ki is the dissociation constant of the complex between target and ligand, obtained from inhibition or displacement. As for `CS[C@@H]1[C@@H](N)[C@@H](O)[C@@H](O)[C@H]1O` [Mannostatin A, mannostatin A], the inhibition constant Ki in data set [1] was 90 nM.
On to `CSC1C(NC(=O)OCc2ccc(O[C@H]3O[C@H](COC(C)=O)[C@@H](OC(C)=O)[C@H](OC(C)=O)[C@@H]3OC(C)=O)cc2)C(OC(C)=O)C(OC(C)=O)C1OC(C)=O` (stereo partly drawn) [Compound 14, 1D-(1,2,3,4/5)-4-[4-(2,3,4,6-tetra-O-acetyl-α-D-mannopyranosyloxy)-benzyloxycarbonyl]amino-1,2,3-tri-O-acetyl-5-(methylsulfanyl)cyclopentane-1,2,3-triol], for which, in the data set on MDAY-D2 lymphoma cells (1 μM), the “reduction in fluorescein labeling (polylactosamine)” value turned out to be 50%.
Regarding `CC(=O)OC[C@H]1O[C@H](Oc2ccc(COC(=O)NC3C(OC(C)=O)C(OC(C)=O)C(OC(C)=O)C3OC(C)=O)cc2)[C@@H](OC(C)=O)[C@@H](OC(C)=O)[C@@H]1OC(C)=O` (stereo partly drawn) [Compound 15, (1,4/2,3,5)-5-[4-(2,3,4,6-tetra-O-acetyl-α-D-mannopyranosyloxy)-benzyloxycarbonyl]amino-1,2,3,4-tetra-O-acetyl-1,2,3,4-cyclopentanetetrol], the “inhibitory activity on polylactosamine formation” value in the data set with MDAY-D2 lymphoma cells (0.1-100 μM) is reported as “did not display any inhibitory activity”.
Consider `O=C(NC1C(O)C(O)C(O)C1O)OCc1ccc(O[C@H]2O[C@H](CO)[C@@H](O)[C@H](O)[C@@H]2O)cc1` (stereo partly drawn) [Compound 2, (1,4/2,3,5)-5-[4-(α-D-mannopyranosyloxy)-benzyloxycarbonyl]amino-1,2,3,4-cyclopentanetetrol], for which the half-life of self-fragmentation stood at 46.67 h in data set [2] (pH 4.0, 25° C.); 8 h in [2] (pH 4.0, 37° C.); 4.5 h in data set [2] (pH 4.5, 37° C.); 1.67 h in data set [2] (pH 5.0, 37° C.); 0.75 h in data set [2] (pH 5.5, 37° C.); 0.267 h in data set [2] (pH 6.0, 37° C.). Besides, the half-life of self-fragmentation in [2] (pH 6.5, 25° C.) is 0.75 h; in data set [2] (pH 6.5, 37° C.), 0.15 h. Besides, the “enzymatic hydrolysis of the prodrug by HLM” value in data set [3] is “progressed to completion”. Further, the “decomposition by α-glucosidase” value with α-glucosidase is listed as “No decomposition of product was observed”. For the same compound, the “decomposition by α-galactosidase” value in the data set with α-galactosidase is listed as “No decomposition of product was observed”. Moreover, the “decomposition by α-L-fucosidase” value in the data set on α-L-fucosidase is recorded as “No decomposition of product was observed”. The decomposition in buffer result in data set [4] is recorded as “No decomposition of product was observed”.
With `NC1C(O)C(O)C(O)C1O` (centres unmarked) [Compound 6, aminocyclopentitetrol], the “inhibition of HLM” value in data set [5] was “not an inhibitor of HLM”.
